Several values for one entry are separate records, joined by “and”; a condition that tells them apart may be missing. Equal values may be shown once.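 Briefly, cells in 96-well plates were exposed to five compound concentrations for 48 h, and endpoints were estimated by linear interpolation. Abbreviation: GI50, concentration required for 50% inhibition of growth. TGI marks complete inhibition of growth.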
Tests used:
Assay in all cases: NCI tumour cell line growth inhibition, 48 h; in the data active = GI50 below about 0.43 µM; inactive = the rest
A498 renal = system: A498 renal
A549 NSCLC = system: A549 NSCLC
CAKI-1 renal = system: CAKI-1 renal
CCRF-CEM leukemia = system: CCRF-CEM leukemia
COLO 205 colon = system: COLO 205 colon
DLD-1 colon = system: DLD-1 colon
DMS 114 small cell lung = system: DMS 114 small cell lung
DMS 273 small cell lung = system: DMS 273 small cell lung
EKVX NSCLC = system: EKVX NSCLC
HCC-2998 colon = system: HCC-2998 colon
HCT-116 colon = system: HCT-116 colon
HCT-15 colon = system: HCT-15 colon
HL-60(TB) leukemia = system: HL-60(TB) leukemia
HOP-18 NSCLC = system: HOP-18 NSCLC
HOP-62 NSCLC = system: HOP-62 NSCLC
HOP-92 NSCLC = system: HOP-92 NSCLC
HS 578T breast = system: HS 578T breast
HT29 colon = system: HT29 colon
IGROV1 ovarian = system: IGROV1 ovarian
K-562 leukemia = system: K-562 leukemia
KM12 colon = system: KM12 colon
KM20L2 colon = system: KM20L2 colon
LOX IMVI melanoma = system: LOX IMVI melanoma
M14 melanoma = system: M14 melanoma
M19-MEL melanoma = system: M19-MEL melanoma
MALME-3M melanoma = system: MALME-3M melanoma
MCF7 breast = system: MCF7 breast
MOLT-4 leukemia = system: MOLT-4 leukemia
NCI-H226 lung = system: NCI-H226 lung
NCI-H23 lung = system: NCI-H23 lung
NCI-H460 lung = system: NCI-H460 lung
NCI-H522 lung = system: NCI-H522 lung
NCI/ADR-RES ovarian = system: NCI/ADR-RES ovarian
OVCAR-3 ovarian = system: OVCAR-3 ovarian
OVCAR-4 ovarian = system: OVCAR-4 ovarian
OVCAR-5 ovarian = system: OVCAR-5 ovarian
OVCAR-8 ovarian = system: OVCAR-8 ovarian
P388 leukemia = system: P388 leukemia
P388/ADR leukemia = system: P388/ADR leukemia
RPMI-8226 leukemia = system: RPMI-8226 leukemia
RXF 393 renal = system: RXF 393 renal
SF-268 CNS = system: SF-268 CNS
SF-295 CNS = system: SF-295 CNS
SF-539 CNS = system: SF-539 CNS
SK-MEL-2 melanoma = system: SK-MEL-2 melanoma
SK-MEL-28 melanoma = system: SK-MEL-28 melanoma
SK-MEL-5 melanoma = system: SK-MEL-5 melanoma
SK-OV-3 ovarian = system: SK-OV-3 ovarian
SN12C renal = system: SN12C renal
SN12K1 renal = system: SN12K1 renal
SNB-19 CNS = system: SNB-19 CNS
SNB-75 CNS = system: SNB-75 CNS
SNB-78 CNS = system: SNB-78 CNS
SW-620 colon = system: SW-620 colon
U251 CNS = system: U251 CNS
UACC-257 melanoma = system: UACC-257 melanoma
UACC-62 melanoma = system: UACC-62 melanoma
UO-31 renal = system: UO-31 renal
XF 498 CNS = system: XF 498 CNS

N[C@H](C(=O)O)[C@H]1ON=C(Cl)[C@@H]1O
> 96.2 µM and 246 µM: TGI (SK-MEL-5 melanoma)
> 97.1 µM and 233 µM: TGI (RPMI-8226 leukemia)
> 301 µM: TGI (XF 498 CNS)
205 µM: TGI (CAKI-1 renal)
> 394 µM: TGI (KM20L2 colon)
222 µM: TGI (HL-60(TB) leukemia)
269 µM: TGI (HOP-92 NSCLC)
68 µM: TGI (MOLT-4 leukemia)
42.2 µM: TGI (OVCAR-4 ovarian)
> 469 µM: TGI (NCI/ADR-RES ovarian)
46.4 µM: TGI (P388/ADR leukemia)
active: GI50 (MCF7 breast) 0.374 µM
> 231 µM: TGI (SK-OV-3 ovarian)
> 362 µM: TGI (SF-539 CNS)
137 µM: TGI (A498 renal)
> 422 µM: TGI (DMS 114 small cell lung)
> 166 µM: TGI (OVCAR-5 ovarian)
> 324 µM: TGI (SN12K1 renal)
78.2 µM: TGI (HOP-62 NSCLC)
62.6 µM: TGI (NCI-H522 lung)
> 255 µM: TGI (MALME-3M melanoma)
> 364 µM: TGI (SNB-75 CNS)
> 173 µM: TGI (HCC-2998 colon)
> 66.9 µM: TGI (M14 melanoma)
inactive: GI50 (A549 NSCLC) 3.79 µM | GI50 (CAKI-1 renal) 4.06 µM | GI50 (CCRF-CEM leukemia) 5.15 µM | GI50 (COLO 205 colon) 3.27 µM | GI50 (EKVX NSCLC) 11.2 µM | GI50 (HCC-2998 colon) 5.62 µM | GI50 (HCT-116 colon) 4.4 µM | GI50 (HCT-15 colon) 3.95 µM | GI50 (HL-60(TB) leukemia) 13.1 µM | GI50 (HOP-62 NSCLC) 16 µM | GI50 (HOP-92 NSCLC) 52.2 µM | GI50 (HT29 colon) 1.24 µM | GI50 (IGROV1 ovarian) 7.86 µM | GI50 (K-562 leukemia) 4.15 µM | GI50 (KM12 colon) 2.23 µM | GI50 (LOX IMVI melanoma) 1.54 µM | GI50 (MALME-3M melanoma) 40.2 µM | GI50 (MOLT-4 leukemia) 2.48 µM | GI50 (NCI-H226 lung) 61.8 µM | GI50 (NCI-H23 lung) 5.09 µM | GI50 (NCI-H460 lung) 3.92 µM | GI50 (NCI-H522 lung) > 25.8 µM | GI50 (NCI/ADR-RES ovarian) 15.3 µM | GI50 (OVCAR-3 ovarian) 0.449 µM | GI50 (OVCAR-4 ovarian) 5.32 µM | GI50 (OVCAR-5 ovarian) 13.8 µM | GI50 (OVCAR-8 ovarian) 12.2 µM | GI50 (RPMI-8226 leukemia) 10.9 µM | GI50 (RXF 393 renal) 7.92 µM | GI50 (SF-268 CNS) 5.1 µM | GI50 (SF-295 CNS) 2.83 µM | GI50 (SF-539 CNS) 8.83 µM | GI50 (SK-MEL-2 melanoma) 9.75 µM | GI50 (SK-MEL-28 melanoma) 28.4 µM | GI50 (SK-MEL-5 melanoma) 4.39 µM | GI50 (SK-OV-3 ovarian) 4.86 µM | GI50 (SN12C renal) 13.6 µM | GI50 (SNB-19 CNS) 40.7 µM | GI50 (SW-620 colon) 8.09 µM | GI50 (U251 CNS) 11.4 µM | GI50 (UACC-257 melanoma) > 51.1 µM | GI50 (UACC-62 melanoma) 17.5 µM
97.5 µM: TGI (HS 578T breast)
> 296 µM: TGI (HT29 colon)
> 309 µM: TGI (IGROV1 ovarian)
17.5 µM: TGI (P388 leukemia)
> 52.9 µM and 174 µM: TGI (NCI-H460 lung)
441 µM: TGI (UO-31 renal)
> 246 µM: TGI (CCRF-CEM leukemia)
> 550 µM: TGI (A549 NSCLC) | TGI (COLO 205 colon) | TGI (DLD-1 colon) | TGI (DMS 273 small cell lung) | TGI (EKVX NSCLC) | TGI (HCT-116 colon) | TGI (HCT-15 colon) | TGI (HOP-18 NSCLC) | TGI (K-562 leukemia) | TGI (KM12 colon) | TGI (LOX IMVI melanoma) | TGI (M19-MEL melanoma) | TGI (MCF7 breast) | TGI (NCI-H226 lung) | TGI (NCI-H23 lung) | TGI (OVCAR-3 ovarian) | TGI (OVCAR-8 ovarian) | TGI (SF-268 CNS) | TGI (SF-295 CNS) | TGI (SK-MEL-2 melanoma) | TGI (SK-MEL-28 melanoma) | TGI (SN12C renal) | TGI (SNB-19 CNS) | TGI (SNB-78 CNS) | TGI (SW-620 colon) | TGI (U251 CNS) | TGI (UACC-257 melanoma) | TGI (UACC-62 melanoma)
> 93.8 µM and 232 µM: TGI (RXF 393 renal)

Source: PubChem BioAssay (NCI)
